Laboratory results: the supplement of paper PMC10307832

Each cell line was assayed with C(C(=O)C(=O)O)Br [Bromopyruvate] + COc1cccc2cc(-c3nc([C@H]4CC[C@H](C(=O)O)CC4)n4ncnc(N)c34)[nH]c12 [OSI-027] (partner 0.5 µM) (assay: relative viability (nuclei count vs DMSO), 5 days (fraction); higher = more cells survive). Conditions: first compound 1 µM.
Summary of the method: (§1)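 Nuclei were stained with Hoechst during a one-step fixation (final 0.05% Triton X-100, 1% formaldehyde, 1 ug/ml Hoechst) carried out 5 days after dosing, then counted on 4× images. The cells, lung cancer lines in 1536-well plates, had been dosed by pin tool the day after seeding with one drug alone or a fixed anchor-drug dose plus five library-drug doses (not always all listed) in √10 steps. Relative viability is the nuclei count in treated wells divided by that in vehicle wells, and each value is the median of duplicate plates.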

Cell Line | relative viability
NCI-H522 | 0.74
NCI-H1623 | 0.495
NCI-H838 | 0.428
NCI-H1650 | 0.642
NCI-H2009 | 0.6
NCI-H1993 | 0.623
PC-14 | 0.788
LCLC-103H | 0.408
NCI-H596 | 0.781
NCI-H2228 | 0.539
EMC-BAC-2 | 0.384
NCI-H2087 | 0.55
HCC-366 | 0.836
NCI-H1666 | 0.913
NCI-H647 | 0.618
LK-2 | 0.235
NCI-H2126 | 0.756
NCI-H2342 | 0.552

Cell Line | relative viability
SK-MES-1 | 0.654
H3255 | 0.523
COR-L23 | 0.817
COR-L 105 | 0.563
LOU-NH91 | 0.804
ChaGo-K-1 | 0.715
NCI-H2170 | 0.469
NCI-H3122 | 0.914
HOP-62 | 0.799
HCC-44 | 0.616
SW 900 | 0.589
LU99A | 0.288
BEN | 0.307
HARA | 0.518
NCI-H1648 | 0.263
HCC-78 | 0.379
NCI-H1563 | 0.747

Same assay, conditions: first compound 3.162 µM

Cell Line | relative viability
NCI-H522 | 0.715
NCI-H1623 | 0.428
NCI-H838 | 0.37
NCI-H1650 | 0.592
NCI-H2009 | 0.66
NCI-H1993 | 0.513
PC-14 | 0.837
LCLC-103H | 0.487
NCI-H596 | 0.711
NCI-H2228 | 0.554
EMC-BAC-2 | 0.382
NCI-H2087 | 0.612
HCC-366 | 1.05
NCI-H1666 | 0.881
NCI-H647 | 0.744
LK-2 | 0.2
NCI-H2126 | 0.707
NCI-H2342 | 0.603

Cell Line | relative viability
SK-MES-1 | 0.552
H3255 | 0.637
COR-L23 | 0.879
COR-L 105 | 0.701
LOU-NH91 | 0.716
ChaGo-K-1 | 0.521
NCI-H2170 | 0.686
NCI-H3122 | 1.13
HOP-62 | 0.743
HCC-44 | 0.634
SW 900 | 0.543
LU99A | 0.27
BEN | 0.296
HARA | 0.567
NCI-H1648 | 0.263
HCC-78 | 0.326
NCI-H1563 | 0.75

Same assay, conditions: first compound 10 µM

Cell Line | relative viability
NCI-H522 | 0.684
NCI-H1623 | 0.46
NCI-H838 | 0.422
NCI-H1650 | 0.669
NCI-H2009 | 0.669
NCI-H1993 | 0.525
PC-14 | 1.37
LCLC-103H | 0.528
NCI-H596 | 0.84
NCI-H2228 | 0.755
EMC-BAC-2 | 0.397
NCI-H2087 | 0.637
HCC-366 | 0.812
NCI-H1666 | 0.836
NCI-H647 | 0.689
LK-2 | 0.21
NCI-H2126 | 0.65
NCI-H2342 | 0.542

Cell Line | relative viability
SK-MES-1 | 0.667
H3255 | 0.683
COR-L23 | 0.977
COR-L 105 | 0.712
LOU-NH91 | 0.747
ChaGo-K-1 | 0.629
NCI-H2170 | 0.769
NCI-H3122 | 1.27
HOP-62 | 1.02
HCC-44 | 0.483
SW 900 | 0.558
LU99A | 0.386
BEN | 0.293
HARA | 0.624
NCI-H1648 | 0.251
HCC-78 | 0.403
NCI-H1563 | 0.758

Same assay, conditions: first compound 31.62 µM

Cell Line | relative viability
NCI-H522 | 0.718
NCI-H1623 | 0.383
NCI-H838 | 0.386
NCI-H1650 | 0.757
NCI-H2009 | 0.545
NCI-H1993 | 0.549
PC-14 | 0.825
LCLC-103H | 0.451
NCI-H596 | 0.684
NCI-H2228 | 0.518
EMC-BAC-2 | 0.397
NCI-H2087 | 0.542
HCC-366 | 0.979
NCI-H1666 | 0.923
NCI-H647 | 0.653
LK-2 | 0.223
NCI-H2126 | 0.668
NCI-H2342 | 0.545

Cell Line | relative viability
SK-MES-1 | 0.603
H3255 | 0.679
COR-L23 | 0.705
COR-L 105 | 0.671
LOU-NH91 | 0.694
ChaGo-K-1 | 0.578
NCI-H2170 | 0.761
NCI-H3122 | 0.964
HOP-62 | 0.803
HCC-44 | 0.596
SW 900 | 0.562
LU99A | 0.278
BEN | 0.277
HARA | 0.436
NCI-H1648 | 0.25
HCC-78 | 0.355
NCI-H1563 | 0.77

Same assay, conditions: first compound 100 µM

Cell Line | relative viability
NCI-H522 | 0.706
NCI-H1623 | 0.399
NCI-H838 | 0.393
NCI-H1650 | 0.464
NCI-H2009 | 0.305
NCI-H1993 | 0.539
PC-14 | 0.841
LCLC-103H | 0.494
NCI-H596 | 0.781
NCI-H2228 | 0.551
EMC-BAC-2 | 0.405
NCI-H2087 | 0.462
HCC-366 | 1.01
NCI-H1666 | 0.854
NCI-H647 | 0.633
LK-2 | 0.218
NCI-H2126 | 0.824
NCI-H2342 | 0.497

Cell Line | relative viability
SK-MES-1 | 0.68
H3255 | 0.573
COR-L23 | 0.401
COR-L 105 | 0.639
LOU-NH91 | 0.756
ChaGo-K-1 | 0.493
NCI-H2170 | 0.743
NCI-H3122 | 1.06
HOP-62 | 0.891
HCC-44 | 0.483
SW 900 | 0.526
LU99A | 0.317
BEN | 0.298
HARA | 0.571
NCI-H1648 | 0.259
HCC-78 | 0.345
NCI-H1563 | 0.763

The cell lines below were run with CC(O)(CS(=O)(=O)c1ccc(F)cc1)C(=O)Nc1ccc(C#N)c(C(F)(F)F)c1 [Bicalutamide] + N=C(N)NC(=N)NCCc1ccccc1 [Phenformin] (partner 250 µM) in the same assay as above. Conditions: first compound 0.08 µM.
Summary of the method: as §1

Cell Line | relative viability
NCI-H522 | 0.659
NCI-H838 | 0.588
NCI-H1650 | 0.429
NCI-H2009 | 0.504
NCI-H1993 | 0.437
PC-14 | 0.701
LCLC-103H | 0.305
NCI-H596 | 0.586
NCI-H2228 | 0.356
EMC-BAC-2 | 0.541
NCI-H2087 | 0.539
HCC-366 | 0.568
NCI-H1666 | 0.613
NCI-H647 | 0.646
LK-2 | 0.526
NCI-H2126 | 0.519
NCI-H2342 | 0.641

Cell Line | relative viability
SK-MES-1 | 0.726
H3255 | 0.42
COR-L23 | 0.5
COR-L 105 | 0.481
LOU-NH91 | 0.745
ChaGo-K-1 | 0.449
NCI-H2170 | 0.418
NCI-H3122 | 0.46
HOP-62 | 0.681
HCC-44 | 0.302
A549 | 0.247
SW 900 | 0.511
LU99A | 0.917
BEN | 0.257
HARA | 0.516
HCC-78 | 0.776
NCI-H1563 | 0.695

Same assay, conditions: first compound 0.253 µM

Cell Line | relative viability
NCI-H522 | 0.649
NCI-H1623 | 0.594
NCI-H838 | 0.573
NCI-H1650 | 0.375
NCI-H2009 | 0.491
NCI-H1993 | 0.51
PC-14 | 0.541
LCLC-103H | 0.326
NCI-H596 | 0.643
NCI-H2228 | 0.371
EMC-BAC-2 | 0.554
NCI-H2087 | 0.449
HCC-366 | 0.615
NCI-H1666 | 0.541
NCI-H647 | 0.596
LK-2 | 0.198
NCI-H2126 | 0.528
NCI-H2342 | 0.466

Cell Line | relative viability
SK-MES-1 | 0.654
H3255 | 0.337
COR-L23 | 0.487
COR-L 105 | 0.412
LOU-NH91 | 0.493
ChaGo-K-1 | 0.388
NCI-H2170 | 0.412
NCI-H3122 | 0.416
HOP-62 | 0.651
HCC-44 | 0.177
A549 | 0.11
SW 900 | 0.555
LU99A | 0.715
BEN | 0.262
HARA | 0.388
HCC-78 | 0.557
NCI-H1563 | 0.718

Same assay, conditions: first compound 0.8 µM

Cell Line | relative viability
NCI-H522 | 0.622
NCI-H1623 | 0.587
NCI-H838 | 0.748
NCI-H1650 | 0.493
NCI-H2009 | 0.469
NCI-H1993 | 0.434
PC-14 | 0.96
LCLC-103H | 0.379
NCI-H596 | 0.794
NCI-H2228 | 0.58
EMC-BAC-2 | 0.609
NCI-H2087 | 0.642
HCC-366 | 0.699
NCI-H1666 | 0.569
NCI-H647 | 0.758
LK-2 | 0.498
NCI-H2126 | 0.55

Cell Line | relative viability
NCI-H2342 | 0.702
SK-MES-1 | 0.728
COR-L23 | 0.512
COR-L 105 | 0.52
LOU-NH91 | 0.814
ChaGo-K-1 | 0.509
NCI-H2170 | 0.429
NCI-H3122 | 0.378
HOP-62 | 0.769
HCC-44 | 0.292
A549 | 0.181
SW 900 | 0.874
LU99A | 0.997
BEN | 0.28
HARA | 0.595
HCC-78 | 0.796
NCI-H1563 | 0.654

Same assay, conditions: first compound 2.53 µM

Cell Line | relative viability
NCI-H522 | 0.661
NCI-H1623 | 0.55
NCI-H838 | 0.337
NCI-H1650 | 0.378
NCI-H2009 | 0.423
NCI-H1993 | 0.447
PC-14 | 0.527
LCLC-103H | 0.355
NCI-H596 | 0.897
NCI-H2228 | 0.291
EMC-BAC-2 | 0.46
NCI-H2087 | 0.435
HCC-366 | 0.64
NCI-H1666 | 0.537
NCI-H647 | 0.385
LK-2 | 0.629
NCI-H2126 | 0.49
NCI-H2342 | 0.608

Cell Line | relative viability
SK-MES-1 | 0.617
H3255 | 0.352
COR-L23 | 0.414
COR-L 105 | 0.37
LOU-NH91 | 0.821
ChaGo-K-1 | 0.48
NCI-H2170 | 0.47
NCI-H3122 | 0.369
HOP-62 | 0.698
HCC-44 | 0.184
A549 | 0.254
SW 900 | 0.411
LU99A | 0.663
BEN | 0.279
HARA | 0.481
HCC-78 | 0.668
NCI-H1563 | 0.629

These cell lines were tested with C(C(=O)C(=O)O)Br [Bromopyruvate] + N=C(N)NC(=N)NCCc1ccccc1 [Phenformin] (partner 250 µM) in the same assay as above. Conditions: first compound 1 µM.
Summary of the method: as §1

Cell Line | relative viability
NCI-H522 | 0.599
NCI-H1623 | 0.545
NCI-H838 | 0.557
NCI-H1650 | 0.414
NCI-H2009 | 0.476
NCI-H1993 | 0.492
PC-14 | 0.754
LCLC-103H | 0.343
NCI-H596 | 0.694
NCI-H2228 | 0.341
EMC-BAC-2 | 0.517
